Test results published in ChEMBL document CHEMBL1201862, “PubChem BioAssay data set” (2004).
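Compound exposure: 48 hours, 5 concentrations, 96-well plates. The concentration for 50% growth inhibition is given as GI50.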 Activity calls are given as the source filed them. No stated cut-off is given here; in the data, active = GI50 up to about 1.1 µM and inactive = higher.

Legend:
Assay in all cases: growth of human tumour cells (NCI), 48 h
[1] = system: 786-0
[2] = system: A498
[3] = system: A549
[4] = system: ACHN
[5] = system: BT-549
[6] = system: CAKI-1
[7] = system: CCRF-CEM
[8] = system: COLO 205
[9] = system: DU-145
[10] = system: EKVX
[11] = system: HCC 2998
[12] = system: HCT-116
[13] = system: HCT-15
[14] = system: HL-60
[15] = system: HOP-62
[16] = system: HOP-92
[17] = system: HT-29
[18] = system: Hs-578T
[19] = system: IGROV-1
[20] = system: KM12
[21] = system: LOX IMVI
[22] = system: M14
[23] = system: MCF7
[24] = system: MDA-MB-231
[25] = system: MDA-MB-435
[26] = system: MDA-N
[27] = system: MOLT-4
[28] = system: Malme-3M
[29] = system: NCI-H23
[30] = system: NCI-H460
[31] = system: NCI-H522
[32] = system: NCI/ADR-RES
[33] = system: OVCAR-3
[34] = system: OVCAR-4
[35] = system: OVCAR-5
[36] = system: OVCAR-8
[37] = system: PC-3
[38] = system: RPMI-8226
[39] = system: SF-268
[40] = system: SF-295
[41] = system: SF-539
[42] = system: SK-MEL-28
[43] = system: SK-MEL-2
[44] = system: SK-MEL-5
[45] = system: SN12C
[46] = system: SNB-19
[47] = system: SNB-75
[48] = system: SR
[49] = system: SW-620
[50] = system: T47D
[51] = system: TK-10
[52] = system: U-251
[53] = system: UACC-257
[54] = system: UACC-62
[55] = system: UO-31

**Q.** With `N#Cc1ccc(OCc2nc3cc(C(F)(F)F)ccc3nc2-c2ccccc2)cc1` as the compound, how does the GI50 [1] read?
**A.** The GI50 was > 100 µM (inactive).

**Q.** What about the GI50 [2] of the same compound?
**A.** Its GI50 is > 100 µM (inactive).

**Q.** And the GI50 [3]?
**A.** Its GI50 is > 100 µM (inactive).

**Q.** What about the GI50 [4] of the same compound?
**A.** The GI50 was > 100 µM (inactive).

**Q.** And the GI50 [5]?
**A.** Its GI50 is > 100 µM (inactive).

**Q.** And the GI50 [6]?
**A.** The GI50 was > 100 µM (inactive).

**Q.** And the GI50 [7]?
**A.** The GI50 was 57.7 µM (inactive).

**Q.** What about the GI50 [8] of the same compound?
**A.** The GI50 was > 100 µM (inactive).

**Q.** What about the GI50 [9] of the same compound?
**A.** Its GI50 is > 100 µM (inactive).

**Q.** What about the GI50 [10] of the same compound?
**A.** Its GI50 is 41.2 µM (inactive).

**Q.** And the GI50 [11]?
**A.** Its GI50 is > 100 µM (inactive).

**Q.** And the GI50 [12]?
**A.** The GI50 was > 100 µM (inactive).

**Q.** What about the GI50 [13] of the same compound?
**A.** The GI50 was over 10 µM.

**Q.** And the GI50 [14]?
**A.** The GI50 was 3.53 µM (inactive).

**Q.** And the GI50 [15]?
**A.** Its GI50 is > 100 µM (inactive).

**Q.** What about the GI50 [16] of the same compound?
**A.** Its GI50 is > 100 µM (inactive).

**Q.** And the GI50 [17]?
**A.** The GI50 was 7.93 µM (inactive).

**Q.** And the GI50 [18]?
**A.** The GI50 was > 100 µM (inactive).

**Q.** And the GI50 [19]?
**A.** Its GI50 is > 100 µM (inactive).

**Q.** And the GI50 [20]?
**A.** The GI50 was > 100 µM (inactive).

**Q.** What about the GI50 [21] of the same compound?
**A.** The GI50 was > 100 µM (inactive).

**Q.** What about the GI50 [22] of the same compound?
**A.** The GI50 was > 100 µM (inactive).

**Q.** And the GI50 [23]?
**A.** The GI50 was > 100 µM (inactive).

**Q.** What about the GI50 [24] of the same compound?
**A.** Its GI50 is 51.1 µM (inactive).

**Q.** What about the GI50 [25] of the same compound?
**A.** The GI50 was > 100 µM (inactive).

**Q.** And the GI50 [26]?
**A.** The GI50 was > 100 µM (inactive).

**Q.** What about the GI50 [27] of the same compound?
**A.** Its GI50 is 62.1 µM (inactive).

**Q.** And the GI50 [28]?
**A.** The GI50 was > 100 µM (inactive).

**Q.** And the GI50 [29]?
**A.** The GI50 was > 100 µM (inactive).

**Q.** What about the GI50 [30] of the same compound?
**A.** The GI50 was > 100 µM (inactive).

**Q.** What about the GI50 [31] of the same compound?
**A.** The GI50 was 7.62 µM (inactive).

**Q.** What about the GI50 [32] of the same compound?
**A.** Its GI50 is > 100 µM (inactive).

**Q.** What about the GI50 [33] of the same compound?
**A.** Its GI50 is > 100 µM (inactive).

**Q.** And the GI50 [34]?
**A.** The GI50 was > 100 µM (inactive).

**Q.** And the GI50 [35]?
**A.** The GI50 was > 100 µM (inactive).

**Q.** And the GI50 [36]?
**A.** Its GI50 is > 100 µM (inactive).

**Q.** What about the GI50 [37] of the same compound?
**A.** Its GI50 is > 100 µM (inactive).

**Q.** What about the GI50 [38] of the same compound?
**A.** Its GI50 is > 100 µM (inactive).

**Q.** What about the GI50 [39] of the same compound?
**A.** Its GI50 is > 100 µM (inactive).

**Q.** And the GI50 [40]?
**A.** Its GI50 is > 100 µM (inactive).

**Q.** What about the GI50 [41] of the same compound?
**A.** The GI50 was > 100 µM (inactive).

**Q.** And the GI50 [42]?
**A.** Its GI50 is > 100 µM (inactive).

**Q.** And the GI50 [43]?
**A.** Its GI50 is > 100 µM (inactive).

**Q.** What about the GI50 [44] of the same compound?
**A.** The GI50 was > 100 µM (inactive).

**Q.** And the GI50 [45]?
**A.** The GI50 was > 100 µM (inactive).

**Q.** What about the GI50 [46] of the same compound?
**A.** Its GI50 is > 100 µM (inactive).

**Q.** What about the GI50 [47] of the same compound?
**A.** Its GI50 is > 100 µM (inactive).

**Q.** And the GI50 [48]?
**A.** The GI50 was 70.5 µM (inactive).

**Q.** And the GI50 [49]?
**A.** The GI50 was > 100 µM (inactive).

**Q.** What about the GI50 [50] of the same compound?
**A.** Its GI50 is > 100 µM (inactive).

**Q.** And the GI50 [51]?
**A.** The GI50 was > 100 µM (inactive).

**Q.** What about the GI50 [52] of the same compound?
**A.** The GI50 was > 100 µM (inactive).

**Q.** And the GI50 [53]?
**A.** Its GI50 is > 100 µM (inactive).

**Q.** And the GI50 [54]?
**A.** The GI50 was > 100 µM (inactive).

**Q.** What about the GI50 [55] of the same compound?
**A.** The GI50 was > 100 µM (inactive).
